By Kd is commonly meant the equilibrium constant for the complex coming apart.

Molecules are shown by their SMILES. Numbered stars: 1 amine (or outer) side, 2 acyl side, 3 side chain; on linkers, the order of the positions; unused ones are H or OH. Bridge positions count the residues as written; N and C are the ends. Square brackets hold non-standard residues; d marks the D form. Peptide text beside a SMILES is read from it. TATA = O=C(CC[*:1])N1CN(C(=O)CC[*:2])CN(C(=O)CC[*:3])C1; Pip = O=C(O)[C@@H]1CCCCN1

T1 sequence (O76036 22-304): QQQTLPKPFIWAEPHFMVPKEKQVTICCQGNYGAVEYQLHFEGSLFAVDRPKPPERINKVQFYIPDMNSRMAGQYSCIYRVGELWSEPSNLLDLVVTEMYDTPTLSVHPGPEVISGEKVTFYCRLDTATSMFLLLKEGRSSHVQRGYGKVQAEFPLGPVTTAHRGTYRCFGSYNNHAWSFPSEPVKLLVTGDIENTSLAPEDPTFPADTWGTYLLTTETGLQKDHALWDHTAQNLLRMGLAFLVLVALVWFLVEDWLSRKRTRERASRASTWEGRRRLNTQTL

The test concerns the target T1, Fc-tagged human NKp46 (Homo sapiens, UniProt O76036).
T1 construct: purchased ACROBiosystems NC1-H5257
Description: NKp46 SPR assay (Method 1 and/or Method 2). It is filed as binding. The conditions noted are these: SPR Method 1 and/or Method 2, Table 3B. The method in brief: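 Method 1: biotinylated Avi-tag NKp46-Fc on streptavidin chip, peptides to 100-5000 nM top in PBS/0.05% Tween 20, 0.5% DMSO; 1:1 kinetic fit with mass transport. Method 2: NKp46-Fc captured by anti-Fc, PBS-P+ 2% DMSO; steady-state or kinetic 1:1 fit. Both 25° C, 50 μl/min, 60 s association.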
(Surface plasmon resonance follows binding to a sensor surface in real time, without labels.)
With `CSCC[C@@H]1NC(=O)[C@@H]2CSCCC(=O)N3CN(CN(C3)C(=O)CCSC[C@@H](C(=O)N[C@@H](C)C(N)=O)NC(=O)[C@H](C(C)C)NC(=O)[C@H](C)NC(=O)CNC(=O)[C@H]([C@@H](C)O)NC(=O)[C@H](CC(C)C)NC1=O)C(=O)CCSC[C@H](NC(=O)[C@H](C)N)C(=O)N[C@@H](CC(N)=O)C(=O)N[C@@H](CC(C)C)C(=O)N[C@@H](CCC(N)=O)C(=O)N[C@@H](C)C(=O)N1CCC[C@H]1C(=O)N2` [BCY18304, A-(SEQ ID NO: 68)-A] (H-ACNLQAPCMLTGAVCA-NH2; linker 2-8-15 via TATA; N-terminus assumed), the affinity, expressed as Kd, was 1530 nM.

Consider `CSCC[C@@H]1NC(=O)[C@@H]2CSCCC(=O)N3CN(CN(C3)C(=O)CCSC[C@@H](C(=O)N[C@@H](C)C(N)=O)NC(=O)[C@H](C(C)C)NC(=O)[C@H](CCCCN)NC(=O)CNC(=O)[C@H]([C@@H](C)O)NC(=O)[C@H](Cc3c[nH]cn3)NC1=O)C(=O)CCSC[C@H](NC(=O)[C@H](C)N)C(=O)N[C@@H](CC(N)=O)C(=O)N[C@@H](CC(C)C)C(=O)N[C@@H](CCC(N)=O)C(=O)N[C@@H](C)C(=O)N1CCC[C@H]1C(=O)N2` [BCY19711, A-(SEQ ID NO: 100)-A] (H-ACNLQAPCMHTGKVCA-NH2; linker 2-8-15 via TATA; N-terminus assumed), for which binding was characterised by a dissociation constant (Kd) of 2750 nM. Then `CSCC[C@@H]1NC(=O)[C@@H]2CSCCC(=O)N3CN(CN(C3)C(=O)CCSC[C@@H](C(=O)N[C@@H](C)C(N)=O)NC(=O)[C@H](C(C)C)NC(=O)[C@H](CCCCN)NC(=O)[C@H](C)NC(=O)[C@H]([C@@H](C)O)NC(=O)[C@H](CC(C)C)NC1=O)C(=O)CCSC[C@H](NC(=O)[C@H](C)N)C(=O)N[C@@H](CC(N)=O)C(=O)N[C@@H](CC(C)C)C(=O)N[C@@H](CCC(N)=O)C(=O)N[C@@H](C)C(=O)N1CCC[C@H]1C(=O)N2` [BCY18303, A-(SEQ ID NO: 67)-A] (H-ACNLQAPCMLTAKVCA-NH2; linker 2-8-15 via TATA), with 2750 nM.

Take `CC(C)C[C@@H]1NC(=O)[C@H](CC(N)=O)NC(=O)[C@@H](NC(=O)[C@H](C)N)CSCCC(=O)N2CN3CN(C2)C(=O)CCSC[C@H](NC(=O)[C@@H]2CCCN2C(=O)[C@H](C)NC(=O)[C@H](CCC(N)=O)NC1=O)C(=O)N[C@@H](CC(C)C)C(=O)N[C@@H](CC(C)C)C(=O)N[C@@H]([C@@H](C)O)C(=O)NCC(=O)N[C@@H](CCCCN)C(=O)N[C@@H](C(C)C)C(=O)N[C@H](C(=O)N[C@@H](C)C(N)=O)CSCCC3=O` [BCY18313, A-(SEQ ID NO: 75)-A] (H-ACNLQAPCLLTGKVCA-NH2; linker 2-8-15 via TATA; N-terminus assumed): the Kd is 2750 nM. Then `CC[C@H](C)[C@@H]1NC(=O)CNC(=O)[C@H](Cc2c[nH]c3ccccc23)NC(=O)[C@H](CCC(N)=O)NC(=O)[C@@H]2CSCCC(=O)N3CN(CN(C3)C(=O)CCSC[C@H](N)C(=O)N[C@@H](CC(=O)O)C(=O)N[C@@H](CC(C)C)C(=O)N[C@@H]([C@@H](C)O)C(=O)N[C@@H]([C@@H](C)O)C(=O)N[C@@H](Cc3c[nH]cn3)C(=O)N[C@@H](CC(N)=O)C(=O)N2)C(=O)CCSC[C@@H](C(N)=O)NC1=O` [BCY18262, (SEQ ID NO: 11)], with 3180 nM; and `CSCC[C@@H]1NC(=O)[C@@H]2CSCCC(=O)N3CN(CN(C3)C(=O)CCSC[C@@H](C(=O)N[C@@H](C)C(N)=O)NC(=O)[C@H](C(C)C)NC(=O)[C@H](CCCCN)NC(=O)CNC(=O)[C@H]([C@@H](C)O)NC(=O)[C@H](CC(C)C)NC1=O)C(=O)CCSC[C@H](NC(=O)[C@H](C)N)C(=O)N[C@@H](CC(N)=O)C(=O)N[C@@H](CC(C)C)C(=O)N[C@@H](CCC(N)=O)C(=O)N[C@@H](C)C(=O)N[C@@H](C)C(=O)N2` [BCY18299, A-(SEQ ID NO: 64)-A] (H-ACNLQAACMLTGKVCA-NH2; linker 2-8-15 via TATA; N-terminus assumed), with 1800 nM; and `CC(C)C[C@@H]1NC(=O)[C@@H]2CSCCC(=O)N3CN(CN(C3)C(=O)CCSC[C@@H](C(=O)N[C@@H](C)C(N)=O)NC(=O)[C@H](C(C)C)NC(=O)[C@H](CCCCN)NC(=O)CNC(=O)[C@H]([C@@H](C)O)NC(=O)[C@H](Cc3c[nH]cn3)NC1=O)C(=O)CCSC[C@H](NC(=O)[C@H](C)N)C(=O)N[C@@H](CC(N)=O)C(=O)N[C@@H](CC(C)C)C(=O)N[C@@H](CCC(N)=O)C(=O)N[C@@H](CCC(N)=O)C(=O)N[C@@H](C)C(=O)N2` [BCY14454, A-(SEQ ID NO: 63)-A] (H-ACNLQQACLHTGKVCA-NH2; linker 2-8-15 via TATA; N-terminus assumed), with 2760 nM. Then `CSCC[C@@H]1NC(=O)[C@@H]2CSCCC(=O)N3CN(CN(C3)C(=O)CCSC[C@@H](C(=O)N[C@@H](C)C(N)=O)NC(=O)[C@H](C(C)C)NC(=O)[C@H](CCCCN)NC(=O)CNC(=O)[C@H]([C@@H](C)O)NC(=O)[C@H](CC(C)C)NC1=O)C(=O)CCSC[C@H](NC(=O)[C@H](C)N)C(=O)N[C@@H](CC(N)=O)C(=O)N[C@@H](CC(C)C)C(=O)N[C@@H](CCC(N)=O)C(=O)N[C@@H](C)C(=O)N1CCCC[C@H]1C(=O)N2` [BCY19701, A-(SEQ ID NO: 92)-A] (H-ACNLQA[Pip]CMLTGKVCA-NH2; linker 2-8-15 via TATA), with 4030 nM. Consider `CSCC[C@@H]1NC(=O)[C@@H]2CSCCC(=O)N3CN(CN(C3)C(=O)CCSC[C@@H](C(=O)N[C@@H](C)C(N)=O)NC(=O)[C@H](C(C)C)NC(=O)[C@H](CCCCN)NC(=O)CNC(=O)[C@H]([C@@H](C)O)NC(=O)[C@H](C)NC1=O)C(=O)CCSC[C@H](NC(=O)[C@H](C)N)C(=O)N[C@@H](CC(N)=O)C(=O)N[C@@H](CC(C)C)C(=O)N[C@@H](CCC(N)=O)C(=O)N[C@@H](C)C(=O)N1CCC[C@H]1C(=O)N2` [BCY18301, A-(SEQ ID NO: 65)-A] (H-ACNLQAPCMATGKVCA-NH2; linker 2-8-15 via TATA; C-terminus assumed), for which the Kd was 4030 nM. The same measure for `CC[C@H](C)[C@@H]1NC(=O)CNC(=O)[C@H](Cc2cn(C)c3ccccc23)NC(=O)[C@H](CCC(N)=O)NC(=O)[C@@H]2CSCCC(=O)N3CN(CN(C3)C(=O)CCSC[C@@H](C(=O)N[C@@H](C)C(N)=O)NC1=O)C(=O)CCSC[C@H](NC(=O)[C@H](C)N)C(=O)N[C@@H](CC(=O)O)C(=O)N[C@@H](CC(C)C)C(=O)N[C@@H]([C@@H](C)O)C(=O)N[C@@H]([C@@H](C)O)C(=O)N[C@@H](Cc1c[nH]cn1)C(=O)N[C@@H](CC(N)=O)C(=O)N2` [BCY18288, A-(SEQ ID NO: 131)-A]: 354 nM; for `CSCC[C@@H]1NC(=O)[C@@H]2CSCCC(=O)N3CN(CN(C3)C(=O)CCSC[C@@H](C(=O)N[C@@H](C)C(N)=O)NC(=O)[C@H](C(C)C)NC(=O)[C@H](CCCCN)NC(=O)CNC(=O)[C@H]([C@@H](C)O)NC(=O)[C@H](CCC(=O)O)NC1=O)C(=O)CCSC[C@H](NC(=O)[C@H](C)N)C(=O)N[C@@H](CC(N)=O)C(=O)N[C@@H](CC(C)C)C(=O)N[C@@H](CCC(N)=O)C(=O)N[C@@H](C)C(=O)N1CCC[C@H]1C(=O)N2` [BCY18316, A-(SEQ ID NO: 78)-A] (H-ACNLQAPCMETGKVCA-NH2; linker 2-8-15 via TATA; C-terminus assumed): 1510 nM.

The values above are taken from patent US20240108738A1, “BICYCLIC PEPTIDE LIGANDS SPECIFIC FOR NK CELLS” (Bicycle Tx Limited, priority 2021, published 2024).
